Assay results: patent US10758534B2 (Vertex Pharmaceuticals Incorporated, priority 2014, dated 2020)

Molecular target: T1, F508del (Homo sapiens, UniProt P13569, DEL508-508)
T1 construct: expressed in transfected cells
Assay: Protocol 2: FRET membrane potential optical assay (VIPR), identification of correction compounds
Format: cell-based
Details: Table 3; compounds of Table 1 as modulators of CFTR activity; protocol not stated
Summary of the method: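 Corrector readout: membrane-potential FRET (CC2-DMPE donor, DiSBAC2(3) acceptor) on VIPR II after Cl⁻-free gluconate bath with 10 μM forskolin and 20 μM genistein. Before this, F508del-expressing NIH3T3 cells were exposed to test compound for 16 h at 37 °C without serum; 27 °C incubation served as temperature-correction control.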

T1 sequence (P13569 with tags, fused parts or gaps DEL508-508): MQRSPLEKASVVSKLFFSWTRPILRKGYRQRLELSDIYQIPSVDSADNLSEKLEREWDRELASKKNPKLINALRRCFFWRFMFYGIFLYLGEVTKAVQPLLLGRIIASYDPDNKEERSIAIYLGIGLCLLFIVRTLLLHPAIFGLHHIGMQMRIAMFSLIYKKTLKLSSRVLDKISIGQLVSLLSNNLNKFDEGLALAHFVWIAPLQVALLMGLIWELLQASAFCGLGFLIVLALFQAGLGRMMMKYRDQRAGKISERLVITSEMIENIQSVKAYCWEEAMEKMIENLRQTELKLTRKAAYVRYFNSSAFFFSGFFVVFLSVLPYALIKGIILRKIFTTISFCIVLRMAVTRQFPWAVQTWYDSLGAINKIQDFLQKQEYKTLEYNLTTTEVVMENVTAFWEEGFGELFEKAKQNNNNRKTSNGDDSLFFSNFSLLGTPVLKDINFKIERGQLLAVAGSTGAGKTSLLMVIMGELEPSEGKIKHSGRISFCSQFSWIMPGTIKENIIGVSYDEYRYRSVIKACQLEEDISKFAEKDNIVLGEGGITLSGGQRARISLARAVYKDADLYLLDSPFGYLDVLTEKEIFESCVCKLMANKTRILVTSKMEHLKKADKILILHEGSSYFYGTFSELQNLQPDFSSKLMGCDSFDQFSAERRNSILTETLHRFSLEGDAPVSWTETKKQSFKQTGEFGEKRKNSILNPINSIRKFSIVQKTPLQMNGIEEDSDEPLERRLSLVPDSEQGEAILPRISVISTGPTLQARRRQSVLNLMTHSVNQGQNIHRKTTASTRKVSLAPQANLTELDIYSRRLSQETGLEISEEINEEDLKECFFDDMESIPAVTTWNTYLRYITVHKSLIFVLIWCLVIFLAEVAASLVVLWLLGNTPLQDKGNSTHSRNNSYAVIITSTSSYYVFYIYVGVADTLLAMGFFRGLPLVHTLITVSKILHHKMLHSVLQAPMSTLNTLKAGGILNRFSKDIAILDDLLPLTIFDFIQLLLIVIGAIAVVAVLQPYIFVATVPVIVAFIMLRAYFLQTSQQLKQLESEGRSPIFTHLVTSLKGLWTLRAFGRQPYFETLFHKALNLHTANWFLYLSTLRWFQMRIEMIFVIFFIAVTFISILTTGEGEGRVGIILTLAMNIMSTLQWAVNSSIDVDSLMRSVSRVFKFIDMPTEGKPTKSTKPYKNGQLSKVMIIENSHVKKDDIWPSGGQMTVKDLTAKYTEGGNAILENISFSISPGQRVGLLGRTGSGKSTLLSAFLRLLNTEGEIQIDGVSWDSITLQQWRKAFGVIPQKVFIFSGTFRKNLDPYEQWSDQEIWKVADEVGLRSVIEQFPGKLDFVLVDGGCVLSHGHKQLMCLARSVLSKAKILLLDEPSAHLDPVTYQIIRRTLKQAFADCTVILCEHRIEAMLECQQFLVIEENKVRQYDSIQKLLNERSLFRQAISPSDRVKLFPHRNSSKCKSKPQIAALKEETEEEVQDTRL

Row | SMILES | EC30
1 | Cc1cc(C)c(Cn2c(C(=O)NS(=O)(=O)c3cccc(N)c3)cc3c(C)cccc32)c(C)c1 [Compound 144, N-(3-aminophenyl)sulfonyl-4-methyl-1-[(2,4,6-trimethylphenyl)methyl]indole-2-carboxamide] | +++ (“+++” means <3 uM)
2 | CC(C)(C)c1cc(C(=O)NS(=O)(=O)c2ccccc2)n(Cc2c(Cl)cc(Cl)cc2Cl)n1 [Compound 145, N-(benzenesulfonyl)-5-tert-butyl-2-[(2,4,6-trichlorophenyl)methyl]pyrazole-3-carboxamide] | +++ (“+++” means <3 uM)
3 | Cc1cccc(C)c1Cn1nc(-c2ccccc2OC(F)(F)F)cc1C(=O)NS(=O)(=O)c1ccccc1 [Compound 149, N-(benzenesulfonyl)-2-[(2,6-dimethylphenyl)methyl]-5-[2-(trifluoromethoxy)phenyl]pyrazole-3-carboxamide] | +++ (“+++” means <3 uM)
4 | Cc1nc(-c2ccc(-c3cc(C(=O)NS(=O)(=O)c4ccccc4)n(Cc4c(C)cccc4C)n3)s2)no1 [Compound 151, N-(benzenesulfonyl)-2-[(2,6-dimethylphenyl)methyl]-5-[5-(5-methyl-1,2,4-oxadiazol-3-yl)-2-thienyl]pyrazole-3-carboxamide] | +++ (“+++” means <3 uM)
5 | Cc1cc(C)c(Cn2c(C(=O)NS(=O)(=O)c3cccc(N)c3)cc3cc(F)ccc32)c(C)c1 [Compound 153, N-(3-aminophenyl)sulfonyl-5-fluoro-1-[(2,4,6-trimethylphenyl)methyl]indole-2-carboxamide] | +++ (“+++” means <3 uM)
6 | Cc1cc(C(C)(C)C)cc(C)c1Cn1nc(C(C)(C)C)cc1C(=O)NS(=O)(=O)c1cccc(N)c1 [Compound 156, N-(3-aminophenyl)sulfonyl-5-tert-butyl-2-[(4-tert-butyl-2,6-dimethyl-phenyl)methyl]pyrazole-3-carboxamide] | +++ (“+++” means <3 uM)
7 | Cc1cc(C)c(Cn2nc(C3(C)CC3)cc2C(=O)NS(=O)(=O)c2cccc(N)c2)c(C)c1 [Compound 158, N-(3-aminophenyl)sulfonyl-5-(1-methylcyclopropyl)-2-[(2,4,6-trimethylphenyl)methyl]pyrazole-3-carboxamide] | +++ (“+++” means <3 uM)
8 | CCOc1ccc(-c2ccc(C(=O)NS(=O)(=O)c3cccc(N)n3)c(Oc3c(C)cc(C)cc3C)n2)cc1F [Compound 161, N-[(6-amino-2-pyridyl)sulfonyl]-6-(4-ethoxy-3-fluoro-phenyl)-2-(2,4,6-trimethylphenoxy)pyridine-3-carboxamide] | +++ (“+++” means <3 uM)
9 | Cc1cc(C)c(Oc2nc(-c3ccc(C(C)C)cc3)ccc2C(=O)NS(=O)(=O)c2cccc(N)n2)c(C)c1 [Compound 164, N-[(6-amino-2-pyridyl)sulfonyl]-6-(4-isopropylphenyl)-2-(2,4,6-trimethylphenoxy)pyridine-3-carboxamide] | +++ (“+++” means <3 uM)
10 | Cc1cc(C)c(Cn2nc(CC(C)C)cc2C(=O)NS(=O)(=O)c2cccc(N)c2)c(C)c1 [Compound 167, N-(3-aminophenyl)sulfonyl-5-isobutyl-2-[(2,4,6-trimethylphenyl)methyl]pyrazole-3-carboxamide] | ++ (“++” means between 3 uM and 10 uM)
11 | COc1cccc2c1cc(C(=O)NS(=O)(=O)c1cccc(N)c1)n2Cc1c(C)cccc1C [Compound 168, N-(3-aminophenyl)sulfonyl-1-[(2,6-dimethylphenyl)methyl]-4-methoxy-indole-2-carboxamide] | +++ (“+++” means <3 uM)
12 | Cc1cc(C)c(Oc2nc(-c3cc(F)cc(OCC(C)C)c3)ccc2C(=O)NS(=O)(=O)c2ccc[nH]c2=O)c(C)c1 [Compound 169, 6-(3-fluoro-5-isobutoxy-phenyl)-N-[(2-oxo-1H-pyridin-3-yl)sulfonyl]-2-(2,4,6-trimethylphenoxy)pyridine-3-carboxamide] | +++ (“+++” means <3 uM)
13 | Cc1cccc(C)c1Cn1nc(C(C)(C)C)cc1C(=O)NS(=O)(=O)c1c(F)cccc1F [Compound 170, 5-tert-butyl-N-(2,6-difluorophenyl)sulfonyl-2-[(2,6-dimethylphenyl)methyl]pyrazole-3-carboxamide] | +++ (“+++” means <3 uM)
14 | CC(C)COc1cc(F)cc(-c2ccc(C(=O)NS(=O)(=O)c3cccc(N)n3)c(N3[C@H](C)CC[C@@H]3C)n2)c1 [Compound 171, N-[(6-amino-2-pyridyl)sulfonyl]-2-[(2S,5R)-2,5-dimethylpyrrolidin-1-yl]-6-(3-fluoro-5-isobutoxy-phenyl)pyridine-3-carboxamide] | +++ (“+++” means <3 uM)
15 | Cc1cc(C)c(Oc2nc(C3CCC(C)CC3)ccc2C(=O)NS(=O)(=O)c2cccc(N)n2)c(C)c1 (centres unmarked) [Compound 172, N-[(6-amino-2-pyridyl)sulfonyl]-6-(4-methylcyclohexyl)-2-(2,4,6-trimethylphenoxy)pyridine-3-carboxamide] | +++ (“+++” means <3 uM)
16 | Cc1cc(C)c(Cn2nc(C(C)(C)C)cc2C(=O)NS(=O)(=O)c2cccc(N)n2)c(C)c1 [Compound 173, N-[(6-amino-2-pyridyl)sulfonyl]-5-tert-butyl-2-[(2,4,6-trimethylphenyl)methyl]pyrazole-3-carboxamide] | ++ (“++” means between 3 uM and 10 uM)
17 | COc1cccc(S(=O)(=O)NC(=O)C2c3ccccc3CN2Cc2c(C)cc(C)cc2C)n1 (centres unmarked) [Compound 174, N-[(6-methoxy-2-pyridyl)sulfonyl]-2-[(2,4,6-trimethylphenyl)methyl]isoindoline-1-carboxamide] | ++ (“++” means between 3 uM and 10 uM)
18 | COc1cccc(-c2cc(C(=O)NS(=O)(=O)c3ccccc3)n(Cc3c(C)cccc3C)n2)c1 [Compound 176, N-(benzenesulfonyl)-2-[(2,6-dimethylphenyl)methyl]-5-(3-methoxyphenyl)pyrazole-3-carboxamide] | +++ (“+++” means <3 uM)

The next lines start with the values.

Row | EC30 | SMILES
19 | +++ (“+++” means <3 uM) | Cc1cc(C)c(Oc2nc(C(C)(C)C)ccc2C(=O)NS(=O)(=O)c2cccc3c2ccn3C)c(C)c1 [Compound 146, 6-tert-butyl-N-(1-methylindol-4-yl)sulfonyl-2-(2,4,6-trimethylphenoxy)pyridine-3-carboxamide]
20 | +++ (“+++” means <3 uM) | CC(C)c1ccccc1Oc1nc(C(C)(C)C)ccc1C(=O)NS(=O)(=O)c1ccccc1 [Compound 147, N-(benzenesulfonyl)-6-tert-butyl-2-(2-isopropylphenoxy)pyridine-3-carboxamide]
21 | +++ (“+++” means <3 uM) | Cc1cccc(C)c1Cn1nc(C(C)(C)C)cc1C(=O)NS(=O)(=O)c1ccc(F)c(N)c1 [Compound 150, N-(3-amino-4-fluoro-phenyl)sulfonyl-5-tert-butyl-2-[(2,6-dimethylphenyl)methyl]pyrazole-3-carboxamide]
22 | +++ (“+++” means <3 uM) | CCOc1ccccc1-c1cc(C(=O)NS(=O)(=O)c2ccccc2)n(Cc2c(C)cccc2C)n1 [Compound 152, N-(benzenesulfonyl)-2-[(2,6-dimethylphenyl)methyl]-5-(2-ethoxyphenyl)pyrazole-3-carboxamide]
23 | +++ (“+++” means <3 uM) | CC(C)(C)c1ccc(C(=O)NS(=O)(=O)c2ccccc2)c(OCc2ccccn2)n1 [Compound 154, N-(benzenesulfonyl)-6-tert-butyl-2-(2-pyridylmethoxy)pyridine-3-carboxamide]
24 | ++ (“++” means between 3 uM and 10 uM) | COc1cc(F)ccc1-c1cc(C(=O)NS(=O)(=O)c2ccccc2)n(Cc2c(C)cccc2C)n1 [Compound 155, N-(benzenesulfonyl)-2-[(2,6-dimethylphenyl)methyl]-5-(4-fluoro-2-methoxy-phenyl)pyrazole-3-carboxamide]
25 | ++ (“++” means between 3 uM and 10 uM) | COc1ccccc1CCn1nc(C(C)(C)C)cc1C(=O)NS(=O)(=O)c1ccccc1 [Compound 157, N-(benzenesulfonyl)-5-tert-butyl-2-[2-(2-methoxyphenyl)ethyl]pyrazole-3-carboxamide]
26 | +++ (“+++” means <3 uM) | Cc1cccc(C)c1Cn1nc(-c2ccc(OC(F)(F)F)cc2)cc1C(=O)NS(=O)(=O)c1ccccc1 [Compound 159, N-(benzenesulfonyl)-2-[(2,6-dimethylphenyl)methyl]-5-[4-(trifluoromethoxy)phenyl]pyrazole-3-carboxamide]
27 | +++ (“+++” means <3 uM) | CC(c1ccccc1)n1c(C(=O)NS(=O)(=O)c2ccccc2)cc2c(F)cccc21 (centres unmarked) [Compound 160, N-(benzenesulfonyl)-4-fluoro-1-(1-phenylethyl)indole-2-carboxamide]
28 | +++ (“+++” means <3 uM) | CCN(CC)c1ccc(-c2cc(C(=O)NS(=O)(=O)c3ccccc3)n(Cc3c(C)cccc3C)n2)cc1 [Compound 162, N-(benzenesulfonyl)-5-[4-(diethylamino)phenyl]-2-[(2,6-dimethylphenyl)methyl]pyrazole-3-carboxamide]
29 | +++ (“+++” means <3 uM) | Cc1cc(C)c(Oc2nc(C(C)(C)C)ccc2C(=O)NS(=O)(=O)c2cncc(N)c2)c(C)c1 [Compound 163, N-[(5-amino-3-pyridyl)sulfonyl]-6-tert-butyl-2-(2,4,6-trimethylphenoxy)pyridine-3-carboxamide]
30 | +++ (“+++” means <3 uM) | CCC(c1ccccc1)n1nc(C(C)(C)C)cc1C(=O)NS(=O)(=O)c1cccc(N)c1 (centres unmarked) [Compound 165, N-(3-aminophenyl)sulfonyl-5-tert-butyl-2-(1-phenylpropyl)pyrazole-3-carboxamide]
31 | +++ (“+++” means <3 uM) | Cc1cccc(C)c1Cn1nc(-c2cccc(F)c2)cc1C(=O)NS(=O)(=O)c1ccccc1 [Compound 166, N-(benzenesulfonyl)-2-[(2,6-dimethylphenyl)methyl]-5-(3-fluorophenyl)pyrazole-3-carboxamide]
32 | ++ (“++” means between 3 uM and 10 uM) | Cc1cc(C)c(Oc2nc(C(F)(F)F)ccc2C(=O)NS(=O)(=O)c2cccc(N)n2)c(C)c1 [Compound 175, N-[(6-amino-2-pyridyl)sulfonyl]-6-(trifluoromethyl)-2-(2,4,6-trimethylphenoxy)pyridine-3-carboxamide]
